Measured values taken from paper PMC5773577, “Novel Miniature Membrane Active Lipopeptidomimetics against Planktonic and Biofilm Embedded Methicillin-Resistant Staphylococcus aureus” (Scientific Reports, 2018).

Legend:
MRSA ATCC 33591 biofilm [1] = assay: Biofilm formation inhibition, crystal violet (CV) assay; type: cell-based, Staphylococcus aureus; conditions: 24 h biofilm formation inhibition, 2.5 μg/mL
Description: (§1) For the experiment, a protocol as described previously was used with slight modifications. Briefly, desired concentrations of the test agents in PBS were added to the wells of a 96-well plate (100 μL). Thereafter, overnight grown stationary phase MRSA ATCC 33591 culture (~4 × 10^5 CFU/mL) in TSB medium (supplemented with 0.25% glucose and 0.5% NaCl) was added to the 96-well plates (100 μL). The plates were incubated at 37 °C without shaking for 24 h. After 24 h, the used medium was discarded and the biofilms formed were washed with PBS once. Subsequently, CV and AB assays were performed to quantify biomass and viability respectively, as described below:
For CV assay after washing the biofilms, the plates were heat fixed at 60 °C for 1 h and 0.1% aqueous CV solution (200 μL) was added to the wells. After 15 min incubation, excess CV was washed off and biomass adhered CV was dissolved in 33% glacial acetic acid (200 μL). The plates were kept at room temperature for 15 min. […] To quantify CV associated biomass, the absorbance was read at 570 nm.
The experiments were repeated on two different days and on each day 6 wells were used for a single treatment. […] Corresponding to CV and AB assay the viability of cells upon treatment was also evaluated. […] The agar plates were incubated at 37 °C for 16–24 h and CFUs were counted. […]

MRSA ATCC 33591 biofilm [2] = assay: Biofilm formation inhibition, alamar blue (AB) assay; type: cell-based, Staphylococcus aureus; conditions: 24 h biofilm formation inhibition, 2.5 μg/mL
Description: as §1
For AB assay, after washing the treated biofilms, a solution of 10% AB reagent in TSB medium (200 μL) was added to the wells of the plates. The plates were sonicated briefly in a bath sonicator (5 min) and kept at room temperature for 30 min in dark. After 30 min, fluorescence was measured by exciting the samples at 550 nm and collecting emission at 590 nm.
The experiments were repeated on two different days and on each day 6 wells were used for a single treatment. Mean ± S.E. for both CV assay and AB assay is presented here. Corresponding to CV and AB assay the viability of cells upon treatment was also evaluated. […] The agar plates were incubated at 37 °C for 16–24 h and CFUs were counted. […]

CN[C@H](CC(C)C)C(=O)N[C@H]1C(=O)N[C@@H](CC(N)=O)C(=O)N[C@H]2C(=O)N[C@H]3C(=O)N[C@H](C(=O)N[C@H](C(=O)O)c4cc(O)cc(O)c4-c4cc3ccc4O)[C@H](O)c3ccc(c(Cl)c3)Oc3cc2cc(c3O[C@@H]2O[C@H](CO)[C@@H](O)[C@H](O)[C@H]2O[C@H]2C[C@](C)(N)[C@H](O)[C@H](C)O2)Oc2ccc(cc2Cl)[C@H]1O [VAN, vancomycin]
reduction of biomass (CV assay) (MRSA ATCC 33591 biofilm [1]): > 95% | % viable cells compared to untreated control (AB assay) (MRSA ATCC 33591 biofilm [2]): < 1%
